Measured values taken from patent US8952024B2, “Herbicidal pyrimidone derivatives” (E I du Pont de Nemours and Company, priority 2009, dated 2015).

Key:
Type in all cases: in vivo
[1] = system: morningglory (Ipomoea spp.); experiment: Test A pre-/postemergence plant response
How it was run: (§1)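 Visually rated 0–100 injury (100 = complete control) versus untreated plants, ~10 days in greenhouse. Application pre- (soil spray, loam/sand) and postemergence (2–10 cm, 1–2 leaf stage), same timepoint.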

[2] = system: wheat (Triticum aestivum); experiment: Test A pre-/postemergence plant response
How it was run: as §1

[3] = system: pigweed (Amaranthus retroflexus); experiment: Test A pre-/postemergence plant response
How it was run: as §1

[4] = system: velvetleaf (Abutilon theophrasti); experiment: Test A pre-/postemergence plant response
How it was run: as §1

[5] = system: barnyardgrass (Echinochloa crus-galli); experiment: Test A pre-/postemergence plant response
How it was run: as §1

[6] = system: large crabgrass (Digitaria sanguinalis); experiment: Test A pre-/postemergence plant response
How it was run: as §1

[7] = system: corn (Zea mays); experiment: Test A pre-/postemergence plant response
How it was run: as §1

[8] = system: giant foxtail (Setaria faberii); experiment: Test A pre-/postemergence plant response
How it was run: as §1

[9] = system: wheat (Triticum aestivum); experiment: Test B pre-/postemergence plant response; details: Postemergence
From the text: (§2) Seeds of plant species selected from blackgrass (Alopecurus myosuroides), downy bromegrass (Bromus tectorum), green foxtail (Setaria viridis), Italian ryegrass (Lolium multiflorum), wheat (Triticum aestivum), wild oat (Avena fatua), deadnettle (henbit deadnettle, Lamium amplexicaule), galium (catchweed bedstraw, Galium aparine), bermudagrass (Cynodon dactylon), Surinam grass (Brachiaria decumbens), cocklebur (Xanthium strumarium), corn (Zea mays), large crabgrass (Digitaria sanguinalis), woolly cupgrass (Eriochloa villosa), giant foxtail (Setaria faberii), goosegrass (Eleusine indica), johnsongrass (Sorghum halepense), kochia (Kochia scoparia), lambsquarters (Chenopodium album), morningglory (Ipomoea coccinea), nightshade (eastern black nightshade, Solanum ptycanthum), yellow nutsedge (Cyperus esculentus), pigweed (Amaranthus retroflexus), ragweed (common ragweed, Ambrosia elatior), Russian thistle (Salsola kali), soybean (Glycine max), sunflower (common oilseed sunflower, Helianthus annuus) and velvetleaf (Abutilon theophrasti) were planted into a blend of loam soil and sand and treated preemergence with test compounds formulated in a non-phytotoxic solvent mixture which included a surfactant.
(§3) At the same time, plants selected from these crop and weed species and also winter barley (Hordeum vulgare), canarygrass (Phalaris minor), chickweed (Stellaria media) and windgrass (Apera spica-venti) were planted in pots containing Redi-Earth® planting medium (Scotts Company, 14111 Scottslawn Road, Marysville, Ohio 43041) comprising spaghnum peat moss, vermiculite, wetting agent and starter nutrients and treated with postemergence applications of some of the test chemicals formulated in the same manner. Plants ranged in height from 2 to 18 cm (1- to 4-leaf stage) for postemergence treatments.
(§4) Treated plants and controls were maintained in a greenhouse for 13 to 15 days, after which time all treated plants were visually evaluated and compared to controls. Plant response ratings, summarized in Table B, are based on a scale of 0 to 100 where 0 is no effect and 100 is complete control. A dash (-) response means no test result.

[10] = system: soybean (Glycine max); experiment: Test B pre-/postemergence plant response; details: Postemergence
From the text: as §2, §3, §4

[11] = system: cocklebur (Xanthium strumarium); experiment: Test B pre-/postemergence plant response; details: Postemergence
From the text: as §2, §3, §4

[12] = system: morningglory (Ipomoea coccinea); experiment: Test B pre-/postemergence plant response; details: Postemergence
From the text: as §2, §3, §4

[13] = Postemergence, 125 g ai/ha, 0 to 100 scale where 0 is no effect and 100 is complete control
[14] = Postemergence, 500 g ai/ha, visual injury, 0 to 100 scale (0 no effect, 100 complete control), approx. ten days
[15] = Preemergence, 125 g ai/ha, 0 to 100 scale, 0 = no effect, 100 = complete control
[16] = Preemergence, 500 g ai/ha, 0 to 100 scale, 0 = no effect, 100 = complete control
[17] = 31 g ai/ha, 0 to 100 scale (0 no effect, 100 complete control)
[18] = 125 g ai/ha, scale 0 to 100 (0 no effect, 100 complete control)

`O=C1CCCC(O)=C1C(=O)c1cnc(-c2ccccc2)n(C2CC[S+]([O-])CC2)c1=O` (mixture of isomers) [Compound 169, 5-[(2-hydroxy-6-oxo-1-cyclohexen-1-yl)carbonyl]-2-phenyl-3-(trans/cis-tetrahydro-1-oxido-2H-thiopyran-4-yl)-4(3H)-pyrimidinone] was tested, and the “Plant response rating, Morningglory” value [1, 13] was 100, the “Morningglory plant response rating” value [1, 14] was 100 and the “Plant response rating, Morningglory” value [1, 15] was 0. The “Plant response rating, Morningglory” value [1, 16] was 20, the “Plant response rating, Wheat” value [2, 13] was 20 and the “Wheat plant response rating” value [2, 14] was 20. The “Plant response rating, Wheat” value [2, 15] was 0, the “Plant response rating, Wheat” value [2, 16] was 0 and the “Plant response rating, Pigweed” value [3, 13] was 100. The “Pigweed plant response rating” value [3, 14] was 100, the “Plant response rating, Pigweed” value [3, 15] was 0 and the “Plant response rating, Pigweed” value [3, 16] was 50. The “Plant response rating, Velvetleaf” value [4, 13] was 100, the “Velvetleaf plant response rating” value [4, 14] was 100 and the “Plant response rating, Velvetleaf” value [4, 15] was 20. For the same compound, the “Plant response rating, Velvetleaf” value [4, 16] was 50, the “Plant response rating, Barnyardgrass” value [5, 13] was 90 and the “Barnyardgrass plant response rating” value [5, 14] was 100. The “Plant response rating, Barnyardgrass” value [5, 15] was 0, the “Plant response rating, Barnyardgrass” value [5, 16] was 50 and the “Plant response rating, Crabgrass, Large” value [6, 13] was 90. For the same compound, the “Crabgrass, Large plant response rating” value [6, 14] was 100, the “Plant response rating, Crabgrass, Large” value [6, 15] was 40 and the “Plant response rating, Crabgrass, Large” value [6, 16] was 40. The “Plant response rating, Corn” value [7, 13] was 0, the “Corn plant response rating” value [7, 14] was 30 and the “Plant response rating, Corn” value [7, 15] was 0. For the same compound, the “Plant response rating, Corn” value [7, 16] was 20, the “Plant response rating, Foxtail, Giant” value [8, 13] was 80 and the “Foxtail, Giant plant response rating” value [8, 14] was 100. The “Plant response rating, Foxtail, Giant” value [8, 15] was 40, the “Plant response rating, Foxtail, Giant” value [8, 16] was 50 and the “Plant response rating, Wheat” value ([9]; 16 g ai/ha, 0 to 100 scale) was 0. The “Plant response rating, Wheat” value [9, 17] was 0, the “Plant response rating, Wheat” value [9, 18] was 5 and the “Plant response rating, Soybean” value ([10]; 16 g ai/ha, 0 to 100 scale) was 55. The “Plant response rating, Soybean” value [10, 17] was 90, the “Plant response rating, Soybean” value [10, 18] was 95 and the “Plant response rating, Cocklebur” value ([11]; 16 g ai/ha, 0 to 100 scale) was 100. For the same compound, the “Plant response rating, Cocklebur” value [11, 17] was 100, the “Plant response rating, Cocklebur” value [11, 18] was 100 and the “Plant response rating, Morningglory” value ([12]; 16 g ai/ha, 0 to 100 scale) was 95. For the same compound, the “Plant response rating, Morningglory” value [12, 17] was 95 and the “Plant response rating, Morningglory” value [12, 18] was 100.
